Assay results reported in patent US4738968A, “1,8-naphthyridine derivatives useful as anti-bacterial agents” (Dainippon Pharmaceutical Co., Ltd., priority 1985, dated 1988).
Values after ≈ are worked out from the molar mass of the structure shown.

Columns and labels:
K. pneumoniae 13 = assay: In vitro antibacterial activity, twofold agar-dilution MIC; assay type: cell-based; settings: Klebsiella pneumoniae; K. pneumoniae 13, Gram -; calculated for free base; 20-hour incubation at 37° C; read-out: minimum inhibitory concentration (MIC)
Description: (§1) The antibacterial activity in vitro is show in Table 1. The numbers in the table show minimum inhibitory concentrations (MIC) (μg/ml), calculated for free base. The minimum inhibitory concentration was determined by the twofold agar-dilution method, which was recommended by Japan Society of Chemotherapy (Chemotherapy, 29(1), 76(1981)), using Muller-Hinton agar. One loopful of an overnight culture of test organisms in Mueller-Hinton broth was inoculated onto 10-ml drug-containing agar layers in petri dishes. Bacterial inocula contained approximately 10^6 colonyl-formingunits. Bacterial growth was observed after 20-hour incubation at 37° C. The MIC was defined as the lowest drug concentration which prevented visible bacterial growth.

M. lacunata P-7102 = assay: as above; assay type: cell-based; settings: M. lacunata P-7102, Gram -; calculated for free base; 20-hour incubation at 37° C; read-out: minimum inhibitory concentration (MIC)
Description: as §1

S. aureus Smith = assay: as above; assay type: cell-based; settings: Staphylococcus aureus, Gram +, calculated for free base, 20-hour incubation at 37° C, read-out: minimum inhibitory concentration (MIC)
Description: as §1

E. coli P-51208 = assay: as above; assay type: cell-based; settings: Escherichia coli, P51208; E. coli P-51208, Gram -; calculated for free base; 20-hour incubation at 37° C; read-out: minimum inhibitory concentration (MIC)
Description: as §1

P. rettgeri IFO 3850 = assay: as above; assay type: cell-based; settings: Providencia rettgeri, IFO3850; P. rettgeri IFO 3850, Gram -; calculated for free base; 20-hour incubation at 37° C; read-out: minimum inhibitory concentration (MIC)
Description: as §1

S. pyogenes A65 = assay: as above; assay type: cell-based; settings: Streptococcus pyogenes; S. pyogenes A65, Gram +; calculated for free base; 20-hour incubation at 37° C; read-out: minimum inhibitory concentration (MIC)
Description: as §1

E. coli P-51209 = assay: as above; assay type: cell-based; settings: Escherichia coli, P51209; E. coli P-51209, Gram -; calculated for free base; 20-hour incubation at 37° C; read-out: minimum inhibitory concentration (MIC)
Description: as §1

E. coli P-5101 = assay: as above; assay type: cell-based; settings: Escherichia coli, P5101; E. coli P-5101, Gram -; calculated for free base; 20-hour incubation at 37° C; read-out: minimum inhibitory concentration (MIC)
Description: as §1

S. epidermidis 8 = assay: as above; assay type: cell-based; settings: Staphylococcus epidermidis; S. epidermidis 8, Gram +; calculated for free base; 20-hour incubation at 37° C; read-out: minimum inhibitory concentration (MIC)
Description: as §1

S. aureus 50774 = assay: as above; assay type: cell-based; settings: Staphylococcus aureus; S. aureus 50774, Gram +; calculated for free base; 20-hour incubation at 37° C; read-out: minimum inhibitory concentration (MIC)
Description: as §1

S. aureus 80 = assay: as above; assay type: cell-based; settings: Staphylococcus aureus; S. aureus 80, Gram +; calculated for free base; 20-hour incubation at 37° C; read-out: minimum inhibitory concentration (MIC)
Description: as §1

Solubility in water = assay type: physicochemical; settings: distilled water, 25° C overnight
Description: The sample was added to distilled water (10 ml) and the solution was shaken in the supersaturated state for 30 minutes. After incubation at 25° C. overnight, the solution was filtered with a microfilter. The filtrate was diluted with 0.1 N hydrochloric acid. The absorbance at 270 nm of the solution was measured and the concentration (μg/ml) of the sample was calculated from a calibration curve separately prepared.

[1] = system: Streptococcus pyogenes A65; assay: In vivo efficacy against systemic infection in mice, S. pyogenes A65; design: species or system mice (ddY-S); settings: A65, 168 h, intraperitoneal infection 3×10^7 cells, drug iv twice, immediately and 6 hours after infection, 7 days observation, calculated for free base, read-out: median effective dose (ED50)
Description: Compounds were each dissolved in deionized water. Each of the solutions was intravenously (iv) administered to mice infected by each of the test organisms under the conditions shown hereinbelow, and the median effective dose (ED50) was calculated by probit analysis. The numerals in the table show ED50 (mg/kg) value, caluclated for free base. Experimental conditions: Mice: Male mice (ddY-S) weighing about 20 g Infection: Streptococcus pyogenes […] Intraperitoneal infection with 3×10^7 cells per mouse suspended in brain heart infusion broth. Medication: Twice, immediately and 6 hours after infection. Observation: For 14 days in the case of Staphylococcus aureus 50774. For 7 days in the case of Streptococcus pyogenes […].

[2] = system: Staphylococcus aureus 50774; assay: In vivo efficacy against systemic infection in mice, S. aureus 50774; design: species or system mice (ddY-S); settings: Staphylococcus aureus, 50774, 336 h, iv infection 5×10^8 cells, drug iv twice, immediately and 6 hours after infection, 14 days observation, calculated for free base, read-out: median effective dose (ED50)
Description: Compounds were each dissolved in deionized water. Each of the solutions was intravenously (iv) administered to mice infected by each of the test organisms under the conditions shown hereinbelow, and the median effective dose (ED50) was calculated by probit analysis. The numerals in the table show ED50 (mg/kg) value, caluclated for free base. Experimental conditions: Mice: Male mice (ddY-S) weighing about 20 g Infection: Staphylococcus aureus 50774 Intravenous infection with 5×10^8 cells per mouse suspended in saline. Medication: Twice, immediately and 6 hours after infection. Observation: For 14 days in the case of Staphylococcus aureus 50774. For 7 days in the case of Streptococcus pyogenes […].

SMILES | MIC (K. pneumoniae 13) [mg/L] | MIC (M. lacunata P-7102) [mg/L] | MIC (S. aureus Smith) [mg/L] | MIC (E. coli P-51208) [mg/L] | MIC (P. rettgeri IFO 3850) [mg/L] | MIC (S. pyogenes A65) [mg/L] | MIC (E. coli P-51209) [mg/L] | MIC (E. coli P-5101) [mg/L] | MIC (S. epidermidis 8) [mg/L] | MIC (S. aureus 50774) [mg/L] | MIC (S. aureus 80) [mg/L] | solubility (Solubility in water) [mg/mL] | ED50 [1] [mg/kg] | ED50 [2] [mg/kg]
Cl.NC[C@@H]1CN(c2nc3c(cc2F)c(=O)c(C(=O)O)cn3C2CC2)C[C@H]1F (relative stereo) [Compound No. 1-trans.HCl, 7-(trans-3-aminomethyl-4-fluoro-1-pyrrolidinyl)-1-cyclopropyl-6-fluoro-1,4-dihydro-4-oxo-1,8-naphthyridine-3carboxylic acid hydrochloride] | 0.05 | 3.13 | 0.025 | 0.78 | 0.05 | 0.025 | 0.78 | 0.0063 | 0.0125 | 0.025 | 0.025 | – | – | –
NC[C@@H]1CN(c2nc3c(cc2F)c(=O)c(C(=O)O)cn3C2CC2)C[C@@H]1Cl (relative stereo) [Compound No. 2-cis, 7-(cis-3-aminomethyl-4-chloro-1-pyrrolidinyl)-1-cyclopropyl-6-fluoro-1,4-dihydro-4-oxo-1,8-naphthyridine-3-carboxylic acid] | – | – | – | – | – | – | – | – | – | – | – | 0.713 (≈ 1870 µM) | – | –
NC[C@@H]1CN(c2nc3c(cc2F)c(=O)c(C(=O)O)cn3C2CC2)C[C@@H]1F (relative stereo) [Compound No. 1-cis, 7-(cis-3-aminomethyl-4-fluoro-1-pyrrolidinyl)-1-cyclopropyl-6-fluoro-1,4-dihydro-4-oxo-1,8-naphthyridine-3-carboxylic acid] | – | – | – | – | – | – | – | – | – | – | – | 0.927 (≈ 2540 µM) | – | –
Cl.NC[C@@H]1CN(c2nc3c(cc2F)c(=O)c(C(=O)O)cn3C2CC2)C[C@@H]1Cl (relative stereo) [2-cis.HCl, 7-(cis-3-aminomethyl-4-chloro-1-pyrrolidinyl)-1-cyclopropyl6-fluoro-1,4-dihydro-4-oxo-1,8-naphthyridine-3-carboxylic acid hydrochloride] | 0.05 | 3.13 | 0.025 | 0.78 | 0.05 | 0.025 | 0.78 | 0.0125 | 0.0125 | 0.025 | 0.0125 | – | 0.235 | 0.355
Cl.NC[C@@H]1CN(c2nc3c(cc2F)c(=O)c(C(=O)O)cn3C2CC2)C[C@@H]1F (relative stereo) [Compound No. 1-cis.HCl, 7-(cis-3-aminomethyl-4-fluoro-1-pyrrolidinyl)-1-cyclopropyl-6-fluoro-1,4-dihydro-4-oxo-1,8-naphthyridine-3-carboxylic acid hydrochloride] | 0.05 | 6.25 | 0.025 | 0.78 | 0.05 | 0.0125 | 0.78 | 0.0125 | 0.0125 | 0.025 | 0.025 | – | 0.365 | 0.274
CNC[C@@H]1CN(c2nc3c(cc2F)c(=O)c(C(=O)O)cn3C2CC2)C[C@@H]1F (relative stereo) [3-cis, 1-cyclopropyl-6-fluoro-7-(cis-4-fluoro-3-methylaminomethyl-1-pyrrolidinyl)-1,4-dihydro-4-oxo-1,8-naphthyridine-3-carboxylic acid] | – | – | – | – | – | – | – | – | – | – | – | 0.789 (≈ 2090 µM) | – | –
CCn1cc(C(=O)O)c(=O)c2cc(F)c(N3CCC(CN)C3)nc21.Cl (stereo not drawn) [Compound A, 7-(3-aminomethyl-1-pyrrolidinyl)-1-ethyl-6-fluoro-1,4-dihydro-4-oxo-1,8-naphthyridine-3-carboxylic acid hydrochloride, reference compound] | 0.39 | 50 | 0.1 | 6.25 | 0.78 | 0.39 | 12.5 | 0.39 | 0.1 | 0.2 | 0.39 | – | 3.75 | 2.79
CCNC[C@@H]1CN(c2nc3c(cc2F)c(=O)c(C(=O)O)cn3C2CC2)C[C@H]1F.Cl (relative stereo) [4-trans.HCl, 1-cyclopropyl-7-(trans-3-ethylaminomethyl-4-fluoro-1-pyrrolidinyl)-6-fluoro-1,4-dihydro-4-oxo-1,8-naphthyridine-3-carboxylic acid hydrochloride] | 0.05 | 3.13 | 0.025 | 0.78 | 0.05 | 0.05 | 0.78 | 0.0125 | 0.0125 | 0.025 | 0.0125 | – | 0.267 | –
Cl.NCC1CCN(c2nc3c(cc2F)c(=O)c(C(=O)O)cn3C2CC2)C1 (stereo not drawn) [Compound B, 7-(3-aminomethyl-1-pyrrolidinyl)-1-cyclopropyl-6-fluoro-1,4-dihydro-4-oxo-1,8-naphthyridine-3-carboxylic acid hydrochloride, reference compound] | 0.1 | 12.5 | 0.05 | 3.13 | 0.1 | 0.05 | 3.13 | 0.025 | 0.025 | 0.025 | 0.05 | – | 0.601 | 0.701
